This is an account of results in PubChem BioAssay (NCI).

Test systems include HOP-62 NSCLC; NCI-H460 lung; OVCAR-4 ovarian; IGROV1 ovarian; SNB-75 CNS; HL-60(TB) leukemia; KM12 colon; UACC-257 melanoma; MCF7 breast; MDA-MB-231 breast.
Holding throughout (assay): NCI-60 cell line screen, 48 h

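Where inhibition never reached the appropriate level, the endpoint shown equals the highest concentration tested. Otherwise, values were interpolated linearly from a five-concentration, 48-hour dose response in 96-well plates. GI50: concentration for 50% inhibition of growth. TGI marks complete inhibition of growth.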

As for `O=c1oc2c(cc1-c1ccccc1)C(O)Oc1ccccc1-2` (centres undefined), the GI50 was 10.3 µM in the experiment with HOP-62 NSCLC; 4.12 µM in the experiment on NCI-H460 lung; 14.8 µM in the experiment on OVCAR-4 ovarian; 10.4 µM with IGROV1 ovarian; 3.54 µM in the experiment on SNB-75 CNS; 2.6 µM with HL-60(TB) leukemia. Besides, the GI50 in the experiment with KM12 colon is 3.04 µM; in the experiment with UACC-257 melanoma, 12.4 µM; in the experiment on MCF7 breast it was 4.29 µM; in the experiment with MDA-MB-231 breast it was 15.5 µM. The TGI in the experiment on HOP-62 NSCLC was 78.8 µM; in the experiment on NCI-H460 lung, more than 100 µM; with OVCAR-4 ovarian it was 70.6 µM; in the experiment on IGROV1 ovarian, 91.9 µM; in the experiment on SNB-75 CNS, 29 µM; in the experiment with HL-60(TB) leukemia, 26.8 µM. Besides, the TGI in the experiment on KM12 colon was 23.4 µM; in the experiment on UACC-257 melanoma it was 35.4 µM; with MCF7 breast it was more than 100 µM; with MDA-MB-231 breast, more than 100 µM.

In the case of `CN(N=O)C(=O)Nc1ccc(C(=O)O)cc1`, the TGI in the experiment with HOP-62 NSCLC, in the experiment with NCI-H460 lung, in the experiment with OVCAR-4 ovarian, in the experiment with IGROV1 ovarian, with SNB-75 CNS and with HL-60(TB) leukemia was more than 100 µM each time. For the same compound, the TGI with KM12 colon, in the experiment with UACC-257 melanoma, in the experiment on MCF7 breast and with MDA-MB-231 breast was more than 100 µM throughout.

For the compound `CNC1=CC(=O)C2=C(C1=O)C1C3=C(C(=O)C(Br)=C(OC)C3=O)C2c2ccccc21` (centres undefined), the GI50 in the experiment with HOP-62 NSCLC is 1.55 µM; with NCI-H460 lung, 11.1 µM; in the experiment with OVCAR-4 ovarian, 2.3 µM; in the experiment on IGROV1 ovarian, 1.35 µM; in the experiment with SNB-75 CNS, 5.69 µM; in the experiment with KM12 colon, 1.87 µM. For the same compound, the GI50 in the experiment on UACC-257 melanoma is 4.58 µM; with MCF7 breast, 2.65 µM; in the experiment on MDA-MB-231 breast, 1.41 µM. The TGI in the experiment on HOP-62 NSCLC was 4.61 µM; with NCI-H460 lung it was more than 50 µM; with OVCAR-4 ovarian it was 15.6 µM; in the experiment on IGROV1 ovarian it was 3.2 µM; in the experiment with SNB-75 CNS it was 18.2 µM; with KM12 colon, 5.93 µM. Also, the TGI in the experiment with UACC-257 melanoma is more than 50 µM; in the experiment with MCF7 breast, 26.2 µM; with MDA-MB-231 breast, 3.17 µM.

Take `OCC#CCCCCOCC#Cc1ccccc1C#CCOCCCCC#CCO`: the GI50 was 31.3 µM with NCI-H460 lung; 14.8 µM with OVCAR-4 ovarian; 46.1 µM in the experiment with IGROV1 ovarian; 20.6 µM in the experiment with SNB-75 CNS; 36.2 µM in the experiment with HL-60(TB) leukemia; 19.6 µM in the experiment on KM12 colon. For the same compound, the values for the GI50 with UACC-257 melanoma, in the experiment on MCF7 breast and in the experiment with MDA-MB-231 breast were 37.3 µM, 47.5 µM and 16.1 µM, respectively. For the same compound, the TGI with NCI-H460 lung was more than 100 µM; with OVCAR-4 ovarian it was 53.9 µM; in the experiment on IGROV1 ovarian, more than 100 µM; in the experiment with SNB-75 CNS it was 66.2 µM; in the experiment with HL-60(TB) leukemia, more than 100 µM; in the experiment on KM12 colon it was 40.5 µM. Moreover, the TGI in the experiment with UACC-257 melanoma is more than 100 µM; with MCF7 breast, more than 100 µM; with MDA-MB-231 breast, 38.3 µM.

As for `CNC(C)[C@H]1CCC2C3CCC4C[C@@H](N(C)C(=O)c5ccccc5)CC[C@]4(C)C3CC[C@@]21C` (some centres undefined), the GI50 is 1.43 µM with HOP-62 NSCLC; 0.732 µM in the experiment on NCI-H460 lung; 1.44 µM with OVCAR-4 ovarian; 1.96 µM with IGROV1 ovarian; 1.97 µM in the experiment with SNB-75 CNS; 1.58 µM with HL-60(TB) leukemia. Also, the GI50 with KM12 colon was 1.44 µM; in the experiment with UACC-257 melanoma, 2.19 µM; with MCF7 breast it was 0.94 µM; in the experiment on MDA-MB-231 breast, 1.6 µM. Further, the TGI in the experiment on HOP-62 NSCLC was determined as 3.17 µM; with NCI-H460 lung, 2.33 µM; in the experiment on OVCAR-4 ovarian, 16.4 µM; in the experiment on IGROV1 ovarian, 7.73 µM; in the experiment on SNB-75 CNS, 5.12 µM; with HL-60(TB) leukemia, 4.28 µM. Further, the TGI with KM12 colon was found to be 5.83 µM; in the experiment with UACC-257 melanoma, 5.53 µM; in the experiment with MCF7 breast, 3.35 µM; with MDA-MB-231 breast, 3.87 µM.

For `Oc1c(Cl)cc(CN(Cc2cc(Cl)c(O)c(Cl)c2)C2CCCCC2)cc1Cl`, the TGI in the experiment on HOP-62 NSCLC, in the experiment with NCI-H460 lung, in the experiment with OVCAR-4 ovarian, in the experiment with IGROV1 ovarian, in the experiment with SNB-75 CNS and in the experiment on KM12 colon was more than 100 µM throughout. Moreover, the TGI with UACC-257 melanoma, with MCF7 breast and with MDA-MB-231 breast was more than 100 µM throughout.

As for `C[n+]1cc2cc3c(cc2c2ccccc21)OCO3`, the GI50 in the experiment on HOP-62 NSCLC was 6.62 µM; in the experiment with NCI-H460 lung, 2.98 µM; in the experiment with OVCAR-4 ovarian it was 3.78 µM; with IGROV1 ovarian, 0.982 µM; with SNB-75 CNS it was 2.22 µM; with KM12 colon, 1.22 µM. For the same compound, the GI50 in the experiment with UACC-257 melanoma is 3.85 µM; in the experiment with MCF7 breast, 2.61 µM; with MDA-MB-231 breast, 10.8 µM. In addition, the TGI with HOP-62 NSCLC came out at 43.2 µM; in the experiment with NCI-H460 lung it was 14.5 µM; with OVCAR-4 ovarian it was 36 µM; in the experiment with IGROV1 ovarian, 58 µM; in the experiment with SNB-75 CNS, 9.6 µM; with KM12 colon, 10.1 µM. Further, the TGI came to 14 µM with UACC-257 melanoma, 17.3 µM with MCF7 breast and 54 µM in the experiment on MDA-MB-231 breast.

`C/C(=C1/N=C(c2ccccc2)OC1=O)c1ccccc1`: the TGI in the experiment with HOP-62 NSCLC, in the experiment on NCI-H460 lung, in the experiment on OVCAR-4 ovarian, in the experiment with IGROV1 ovarian, in the experiment with SNB-75 CNS and in the experiment on HL-60(TB) leukemia was more than 100 µM each time. Moreover, the TGI with KM12 colon, in the experiment on UACC-257 melanoma, with MCF7 breast and in the experiment on MDA-MB-231 breast was more than 100 µM throughout.

`CC(=O)Oc1ccccc1C(=O)NCCC[Se]C#N`: the GI50 was 1.51 µM in the experiment on HOP-62 NSCLC; 1.69 µM in the experiment with NCI-H460 lung; 3.62 µM in the experiment with OVCAR-4 ovarian; 2.24 µM in the experiment with IGROV1 ovarian; 1.88 µM in the experiment with SNB-75 CNS; 2.09 µM in the experiment on HL-60(TB) leukemia. Further, the GI50 in the experiment with KM12 colon was 2.84 µM; in the experiment with MCF7 breast it was 2.32 µM. Also, the TGI in the experiment with HOP-62 NSCLC was 2.92 µM; in the experiment with NCI-H460 lung it was 4.52 µM; with OVCAR-4 ovarian it was 25.7 µM; with IGROV1 ovarian, 11.2 µM; with SNB-75 CNS, 4.92 µM; in the experiment with HL-60(TB) leukemia, 5.49 µM. For the same compound, the TGI stood at 16.7 µM in the experiment with KM12 colon and 11.7 µM in the experiment on MCF7 breast.
